ChEMBL document CHEMBL1201862, “PubChem BioAssay data set” (2004)
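Each compound was tested at five concentrations against cells in 96-well plates for 48 hours. GI50: concentration for 50% inhibition of growth.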 Active and inactive are the calls of the source. No stated cut-off is given here; in the data, active = GI50 up to about 1.1 µM and inactive = higher.

Columns and labels:
Experiment in all cases: DTP human tumour cell line panel, 48 h
[1] = system: SK-MEL-5
[2] = system: HOP-62
[3] = system: SF-295
[4] = system: RPMI-8226
[5] = system: SNB-75
[6] = system: HL-60
[7] = system: COLO 205
[8] = system: OVCAR-5
[9] = system: M14
[10] = system: OVCAR-8
[11] = system: HT-29
[12] = system: SN12C
[13] = system: HCT-116
[14] = system: CCRF-CEM
[15] = system: NCI-H226
[16] = system: SK-MEL-28
[17] = system: SW-620
[18] = system: BT-549
[19] = system: SR

Measured: GI50

COc1ccc(/C=C/C(=O)CC(=O)/C=C/c2ccc(OC)cc2)cc1
inactive: [1] 67.6 µM | [2] > 100 µM | [3] 27.9 µM | [4] 38.1 µM | [5] > 100 µM | [6] 25.6 µM | [7] 69.5 µM | [8] 46.2 µM | [9] 77.8 µM | [10] 21.4 µM | [11] 23.1 µM | [12] 61.5 µM | [13] 15.3 µM | [14] 20.9 µM | [15] > 100 µM | [16] 36.4 µM | [17] 52.5 µM

OCCN(CO)CO
inactive: [1] > 100 µM | [2] > 100 µM | [3] > 100 µM | [4] 86.5 µM | [5] > 100 µM | [7] > 100 µM | [9] > 100 µM | [18] > 100 µM | [10] > 100 µM | [11] > 100 µM | [12] > 100 µM | [13] > 100 µM | [15] > 100 µM | [16] > 100 µM | [17] > 100 µM

O=C1NC(=S)N/C1=C\c1ccc(Cl)cc1
inactive: [1] 41.8 µM | [2] > 100 µM | [3] > 100 µM | [4] 77.3 µM | [5] > 100 µM | [7] 80.5 µM | [8] > 100 µM | [9] > 100 µM | [18] > 100 µM | [10] > 100 µM | [11] > 100 µM | [12] > 100 µM | [13] > 100 µM | [14] 54.2 µM | [15] > 100 µM | [16] > 100 µM | [17] > 100 µM

CC1(CC2=C(C(=O)NCCO[Si](C)(C)C(C)(C)C)C3(OCCO3)C2=O)OCCO1
inactive: [1] > 100 µM | [2] > 100 µM | [3] > 100 µM | [5] 36.5 µM | [6] 29.1 µM | [7] > 100 µM | [8] > 100 µM | [9] > 100 µM | [18] 53.2 µM | [10] > 100 µM | [11] > 100 µM | [12] > 100 µM | [13] 68.5 µM | [14] 54.2 µM | [15] 71.1 µM | [16] > 100 µM | [17] > 100 µM

CC(=O)OCC1OC(n2c(C)c(C(C)=O)c(-c3ccc(Cl)cc3)c(C#N)c2=S)C(OC(C)=O)C(OC(C)=O)C1OC(C)=O (stereo unspecified)
inactive: [1] > 100 µM | [2] > 100 µM | [3] > 100 µM | [5] > 100 µM | [6] > 100 µM | [7] > 100 µM | [9] > 100 µM | [10] > 100 µM | [11] > 100 µM | [12] > 100 µM | [13] > 100 µM | [19] > 100 µM | [14] > 100 µM | [15] > 100 µM | [16] > 100 µM | [17] > 100 µM

CCc1cccc(CC)c1Nc1nc2c(s1)C(=O)c1ccccc1C2=O
inactive: [1] 20.7 µM | [2] 16 µM | [3] 13.7 µM | [4] 24.7 µM | [5] 11.8 µM | [6] 26.4 µM | [7] 22.9 µM | [8] 20.3 µM | [9] 17.4 µM | [12] 15.8 µM | [13] 16.7 µM | [19] 23.3 µM | [14] 38.9 µM | [16] 19.1 µM | [17] 26.1 µM

CC1=CC(=O)/C(=C/Nc2nc(-c3ccc([N+](=O)[O-])cc3)cs2)C(=O)O1
inactive: [1] > 100 µM | [2] > 100 µM | [3] > 100 µM | [4] > 100 µM | [5] > 100 µM | [6] 19.9 µM | [7] > 100 µM | [8] > 100 µM | [9] > 100 µM | [18] > 100 µM | [10] > 100 µM | [11] > 100 µM | [12] > 100 µM | [13] > 100 µM | [14] 31.5 µM | [15] > 100 µM | [17] > 100 µM

C=C1C(=O)OC2C1CC(OC(C)=O)/C(C)=C/CCC1(C)OC21 (stereo unspecified)
inactive: [1] > 100 µM | [3] > 100 µM | [4] > 100 µM | [5] > 100 µM | [6] > 100 µM | [7] > 100 µM | [8] > 100 µM | [9] > 100 µM | [18] > 100 µM | [10] > 100 µM | [11] > 100 µM | [12] > 100 µM | [13] > 100 µM | [14] > 100 µM | [15] > 100 µM | [16] > 100 µM | [17] > 100 µM
